In article PMC5564600 (Oncotarget, 2017):

Tests used:
Assay in all cases: biochemical
Type in all cases: binding
panel of 442 kinases [1] = molecular target: T1, panel of 442 kinases (Homo sapiens, UniProt Q9P0L2); conditions: kinase MARK1; for remaining activity at 1 µM: read-out: % of control at 1 µM
T1 construct: purchased Ambit Biosciences (scanMAXX KINOMEscan)

panel of 442 kinases [2] = molecular target: T2, panel of 442 kinases (Homo sapiens, UniProt Q9UEW8); conditions: kinase STK39; for remaining activity at 1 µM: read-out: STK39 (% of control at 1 µM)
T2 construct: purchased Ambit Biosciences (scanMAXX KINOMEscan)

panel of 442 kinases [3] = molecular target: T3, panel of 442 kinases (Homo sapiens, UniProt Q9C098); conditions: DCAMKL3; for remaining activity at 1 µM: read-out: % of control at 1 µM
T3 construct: purchased Ambit Biosciences (scanMAXX KINOMEscan)
T3 sequence (Q9C098 whole entry): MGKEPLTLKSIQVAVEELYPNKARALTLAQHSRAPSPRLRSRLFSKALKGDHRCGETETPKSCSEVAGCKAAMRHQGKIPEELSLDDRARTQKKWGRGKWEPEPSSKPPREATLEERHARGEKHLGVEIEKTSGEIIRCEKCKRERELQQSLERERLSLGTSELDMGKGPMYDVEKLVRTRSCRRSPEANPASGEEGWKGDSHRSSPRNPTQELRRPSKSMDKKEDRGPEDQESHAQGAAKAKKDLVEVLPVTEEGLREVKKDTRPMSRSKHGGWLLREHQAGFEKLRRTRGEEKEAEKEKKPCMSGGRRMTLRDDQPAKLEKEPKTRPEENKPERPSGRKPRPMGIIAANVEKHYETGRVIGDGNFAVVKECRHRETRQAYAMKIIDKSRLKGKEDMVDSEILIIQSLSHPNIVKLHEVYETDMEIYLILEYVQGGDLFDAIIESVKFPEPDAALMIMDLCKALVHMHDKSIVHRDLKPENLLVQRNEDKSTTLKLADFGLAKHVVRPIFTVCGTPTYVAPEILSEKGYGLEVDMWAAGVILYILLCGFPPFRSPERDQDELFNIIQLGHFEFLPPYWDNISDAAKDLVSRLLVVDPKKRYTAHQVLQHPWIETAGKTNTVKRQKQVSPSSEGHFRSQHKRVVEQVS

panel of 442 kinases [4] = molecular target: T4, panel of 442 kinases (Homo sapiens, UniProt Q86Y07); conditions: kinase VRK2; for remaining activity at 1 µM: read-out: VRK2 (% of control at 1 µM)
T4 construct: purchased Ambit Biosciences (scanMAXX KINOMEscan)

panel of 442 kinases [5] = molecular target: T5, panel of 442 kinases (Mycobacterium tuberculosis, UniProt P9WI81); conditions: for remaining activity at 1 µM: read-out: PKNB(M.tuberculosis) (% of control at 1 µM); for remaining activity at 10 µM: read-out: PKNB(M.tuberculosis) (% of control at 10 µM)
T5 construct: purchased Ambit Biosciences (scanMAXX KINOMEscan)
T5 sequence (P9WI81 whole entry): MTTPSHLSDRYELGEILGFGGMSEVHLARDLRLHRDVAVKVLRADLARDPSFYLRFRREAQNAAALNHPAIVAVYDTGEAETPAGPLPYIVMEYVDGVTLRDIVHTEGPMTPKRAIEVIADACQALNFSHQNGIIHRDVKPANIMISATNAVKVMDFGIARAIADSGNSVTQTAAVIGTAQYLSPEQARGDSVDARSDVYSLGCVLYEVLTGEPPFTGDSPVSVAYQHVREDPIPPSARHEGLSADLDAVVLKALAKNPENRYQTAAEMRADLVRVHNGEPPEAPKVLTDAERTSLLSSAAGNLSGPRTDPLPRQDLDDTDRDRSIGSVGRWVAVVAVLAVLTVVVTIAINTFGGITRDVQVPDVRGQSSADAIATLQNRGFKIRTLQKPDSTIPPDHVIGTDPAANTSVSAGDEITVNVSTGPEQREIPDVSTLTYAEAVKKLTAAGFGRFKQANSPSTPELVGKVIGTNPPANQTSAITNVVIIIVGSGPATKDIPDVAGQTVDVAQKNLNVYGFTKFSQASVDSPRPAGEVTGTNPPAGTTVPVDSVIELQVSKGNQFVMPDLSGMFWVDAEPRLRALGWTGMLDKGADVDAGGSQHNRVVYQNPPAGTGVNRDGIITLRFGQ

panel of 442 kinases [6] = molecular target: T6, panel of 442 kinases (Homo sapiens, UniProt P78356); conditions: kinase PIP5K2B; for remaining activity at 1 µM: read-out: % of control at 1 µM
T6 construct: purchased Ambit Biosciences (scanMAXX KINOMEscan)
T6 sequence (P78356 1-416): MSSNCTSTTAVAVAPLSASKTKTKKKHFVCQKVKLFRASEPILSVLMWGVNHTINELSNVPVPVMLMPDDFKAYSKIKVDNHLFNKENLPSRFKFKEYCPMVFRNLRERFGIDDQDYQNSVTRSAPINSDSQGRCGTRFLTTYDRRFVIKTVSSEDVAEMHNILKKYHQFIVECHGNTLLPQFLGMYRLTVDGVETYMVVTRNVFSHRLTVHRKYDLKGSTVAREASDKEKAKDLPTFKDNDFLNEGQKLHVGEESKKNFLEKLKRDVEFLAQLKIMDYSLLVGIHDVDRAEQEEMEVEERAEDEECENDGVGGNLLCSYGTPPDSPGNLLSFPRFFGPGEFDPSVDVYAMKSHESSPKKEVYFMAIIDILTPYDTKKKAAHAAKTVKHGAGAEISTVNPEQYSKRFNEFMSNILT

panel of 442 kinases [7] = molecular target: T7, panel of 442 kinases (Homo sapiens, UniProt Q9NYY3); conditions: kinase PLK2; for remaining activity at 1 µM: read-out: PLK2 (% of control at 1 µM)
T7 construct: purchased Ambit Biosciences (scanMAXX KINOMEscan)
T7 sequence (Q9NYY3 whole entry): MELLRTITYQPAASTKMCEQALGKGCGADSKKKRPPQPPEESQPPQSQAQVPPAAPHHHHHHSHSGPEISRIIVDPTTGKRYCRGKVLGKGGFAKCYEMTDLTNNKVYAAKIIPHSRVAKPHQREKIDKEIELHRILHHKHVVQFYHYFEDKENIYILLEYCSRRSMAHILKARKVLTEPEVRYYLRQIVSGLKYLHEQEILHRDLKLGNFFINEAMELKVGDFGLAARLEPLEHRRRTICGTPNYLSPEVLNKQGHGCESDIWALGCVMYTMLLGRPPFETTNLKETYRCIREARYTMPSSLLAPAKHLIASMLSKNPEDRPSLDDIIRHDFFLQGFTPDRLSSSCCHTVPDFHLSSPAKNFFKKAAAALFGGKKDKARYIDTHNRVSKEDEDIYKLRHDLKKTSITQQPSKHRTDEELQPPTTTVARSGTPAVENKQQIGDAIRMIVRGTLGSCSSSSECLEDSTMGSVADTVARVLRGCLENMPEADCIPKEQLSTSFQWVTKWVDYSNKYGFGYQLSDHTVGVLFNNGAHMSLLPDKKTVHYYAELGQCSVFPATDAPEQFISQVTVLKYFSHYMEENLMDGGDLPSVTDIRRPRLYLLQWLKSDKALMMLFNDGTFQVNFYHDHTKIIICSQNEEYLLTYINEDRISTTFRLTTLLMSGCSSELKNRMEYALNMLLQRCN

panel of 442 kinases [8] = molecular target: T8, panel of 442 kinases (Homo sapiens, UniProt P54756); conditions: EPHA5; for remaining activity at 1 µM: read-out: % of control at 1 µM
T8 construct: purchased Ambit Biosciences (scanMAXX KINOMEscan)

panel of 442 kinases [9] = molecular target: T9, panel of 442 kinases (Homo sapiens, UniProt P33981); conditions: kinase TTK; for remaining activity at 1 µM: read-out: TTK (% of control at 1 µM)
T9 construct: purchased Ambit Biosciences (scanMAXX KINOMEscan)
T9 sequence (P33981 1-857): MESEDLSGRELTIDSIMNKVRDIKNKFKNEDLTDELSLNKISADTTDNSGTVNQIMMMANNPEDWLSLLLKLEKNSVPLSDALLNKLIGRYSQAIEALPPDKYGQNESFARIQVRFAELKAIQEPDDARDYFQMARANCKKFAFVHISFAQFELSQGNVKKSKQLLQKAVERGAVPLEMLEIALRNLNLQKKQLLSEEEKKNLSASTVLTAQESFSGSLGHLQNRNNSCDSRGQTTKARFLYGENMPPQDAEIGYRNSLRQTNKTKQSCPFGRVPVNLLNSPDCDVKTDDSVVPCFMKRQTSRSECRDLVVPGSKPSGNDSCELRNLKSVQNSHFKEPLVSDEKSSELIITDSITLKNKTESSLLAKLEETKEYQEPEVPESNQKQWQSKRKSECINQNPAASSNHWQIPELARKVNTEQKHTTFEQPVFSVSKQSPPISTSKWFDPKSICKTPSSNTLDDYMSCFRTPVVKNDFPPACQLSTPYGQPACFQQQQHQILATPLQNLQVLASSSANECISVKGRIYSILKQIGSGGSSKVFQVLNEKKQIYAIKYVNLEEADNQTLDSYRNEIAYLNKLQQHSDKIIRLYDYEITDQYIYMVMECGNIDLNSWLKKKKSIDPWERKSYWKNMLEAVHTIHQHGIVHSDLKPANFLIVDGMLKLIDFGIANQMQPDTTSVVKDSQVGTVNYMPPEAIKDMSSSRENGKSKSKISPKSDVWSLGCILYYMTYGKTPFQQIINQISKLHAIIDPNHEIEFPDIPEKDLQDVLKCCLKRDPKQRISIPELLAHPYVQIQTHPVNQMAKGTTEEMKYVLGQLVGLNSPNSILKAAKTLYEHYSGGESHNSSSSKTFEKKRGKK

panel of 442 kinases [10] = molecular target: T10, panel of 442 kinases (Homo sapiens, UniProt Q13523); conditions: kinase PRP4; for remaining activity at 1 µM: read-out: PRP4 (% of control at 1 µM)
T10 construct: purchased Ambit Biosciences (scanMAXX KINOMEscan)
T10 sequence (Q13523 whole entry): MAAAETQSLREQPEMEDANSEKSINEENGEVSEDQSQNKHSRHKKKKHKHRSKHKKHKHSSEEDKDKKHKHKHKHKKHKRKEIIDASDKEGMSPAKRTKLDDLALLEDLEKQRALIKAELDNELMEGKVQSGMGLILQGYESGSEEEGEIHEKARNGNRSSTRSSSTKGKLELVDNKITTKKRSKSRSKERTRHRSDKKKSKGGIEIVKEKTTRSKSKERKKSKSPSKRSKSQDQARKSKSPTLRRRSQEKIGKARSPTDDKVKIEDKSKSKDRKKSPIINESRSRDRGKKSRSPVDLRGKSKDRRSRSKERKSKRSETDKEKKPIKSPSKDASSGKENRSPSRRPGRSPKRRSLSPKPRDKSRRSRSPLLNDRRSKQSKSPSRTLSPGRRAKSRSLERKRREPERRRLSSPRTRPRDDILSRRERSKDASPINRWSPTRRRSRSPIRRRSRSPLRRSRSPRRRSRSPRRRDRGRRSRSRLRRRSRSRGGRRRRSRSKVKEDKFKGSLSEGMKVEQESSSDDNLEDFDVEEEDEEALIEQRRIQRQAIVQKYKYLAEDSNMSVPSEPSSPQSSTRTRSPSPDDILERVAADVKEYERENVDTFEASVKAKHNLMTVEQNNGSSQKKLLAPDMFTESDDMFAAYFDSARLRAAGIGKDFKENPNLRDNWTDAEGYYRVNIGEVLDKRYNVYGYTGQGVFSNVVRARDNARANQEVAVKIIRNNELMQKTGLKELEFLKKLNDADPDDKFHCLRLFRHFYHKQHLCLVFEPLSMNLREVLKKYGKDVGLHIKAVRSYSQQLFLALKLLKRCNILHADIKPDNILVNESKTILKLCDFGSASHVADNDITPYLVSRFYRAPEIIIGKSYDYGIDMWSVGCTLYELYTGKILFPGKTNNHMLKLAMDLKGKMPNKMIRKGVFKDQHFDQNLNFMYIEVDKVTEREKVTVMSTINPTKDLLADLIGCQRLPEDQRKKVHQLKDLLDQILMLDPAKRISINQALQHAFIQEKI

panel of 442 kinases [11] = molecular target: T11, panel of 442 kinases (Homo sapiens, UniProt Q9NSY1); conditions: BIKE; for remaining activity at 1 µM: read-out: % of control at 1 µM
T11 construct: purchased Ambit Biosciences (scanMAXX KINOMEscan)
T11 sequence (Q9NSY1 whole entry): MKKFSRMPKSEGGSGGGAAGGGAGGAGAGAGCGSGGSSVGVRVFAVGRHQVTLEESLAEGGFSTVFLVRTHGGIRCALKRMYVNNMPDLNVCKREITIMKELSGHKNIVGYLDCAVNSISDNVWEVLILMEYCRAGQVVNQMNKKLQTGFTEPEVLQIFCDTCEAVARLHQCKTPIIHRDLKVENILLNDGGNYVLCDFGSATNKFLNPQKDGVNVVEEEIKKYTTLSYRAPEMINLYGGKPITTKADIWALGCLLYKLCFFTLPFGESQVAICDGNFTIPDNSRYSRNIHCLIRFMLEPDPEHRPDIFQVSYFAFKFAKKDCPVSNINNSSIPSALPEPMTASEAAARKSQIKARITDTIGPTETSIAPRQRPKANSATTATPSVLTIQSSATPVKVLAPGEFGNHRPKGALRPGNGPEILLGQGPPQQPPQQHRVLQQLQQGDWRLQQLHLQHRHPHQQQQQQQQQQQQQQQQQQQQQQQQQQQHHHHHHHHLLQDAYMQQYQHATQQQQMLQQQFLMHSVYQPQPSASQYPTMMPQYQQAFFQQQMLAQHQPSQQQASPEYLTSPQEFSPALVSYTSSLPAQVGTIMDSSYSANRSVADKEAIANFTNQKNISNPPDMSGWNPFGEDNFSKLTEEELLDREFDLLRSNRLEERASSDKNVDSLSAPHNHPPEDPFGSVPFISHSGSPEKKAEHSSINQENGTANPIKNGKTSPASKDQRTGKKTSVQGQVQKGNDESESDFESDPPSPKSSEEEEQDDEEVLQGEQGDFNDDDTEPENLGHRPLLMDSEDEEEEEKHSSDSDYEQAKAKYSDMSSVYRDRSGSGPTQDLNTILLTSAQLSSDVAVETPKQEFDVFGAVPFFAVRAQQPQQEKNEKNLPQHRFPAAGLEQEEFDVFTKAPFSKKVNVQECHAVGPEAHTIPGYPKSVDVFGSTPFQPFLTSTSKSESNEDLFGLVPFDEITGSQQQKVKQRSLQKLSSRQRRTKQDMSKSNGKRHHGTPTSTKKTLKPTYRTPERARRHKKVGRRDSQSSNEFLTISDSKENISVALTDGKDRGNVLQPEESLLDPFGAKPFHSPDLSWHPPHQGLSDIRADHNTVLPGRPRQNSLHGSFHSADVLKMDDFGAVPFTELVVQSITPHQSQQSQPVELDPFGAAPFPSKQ

[12] = 10 µM, read-out: % of control at 10 µM

T1 sequence (Q9P0L2 whole entry): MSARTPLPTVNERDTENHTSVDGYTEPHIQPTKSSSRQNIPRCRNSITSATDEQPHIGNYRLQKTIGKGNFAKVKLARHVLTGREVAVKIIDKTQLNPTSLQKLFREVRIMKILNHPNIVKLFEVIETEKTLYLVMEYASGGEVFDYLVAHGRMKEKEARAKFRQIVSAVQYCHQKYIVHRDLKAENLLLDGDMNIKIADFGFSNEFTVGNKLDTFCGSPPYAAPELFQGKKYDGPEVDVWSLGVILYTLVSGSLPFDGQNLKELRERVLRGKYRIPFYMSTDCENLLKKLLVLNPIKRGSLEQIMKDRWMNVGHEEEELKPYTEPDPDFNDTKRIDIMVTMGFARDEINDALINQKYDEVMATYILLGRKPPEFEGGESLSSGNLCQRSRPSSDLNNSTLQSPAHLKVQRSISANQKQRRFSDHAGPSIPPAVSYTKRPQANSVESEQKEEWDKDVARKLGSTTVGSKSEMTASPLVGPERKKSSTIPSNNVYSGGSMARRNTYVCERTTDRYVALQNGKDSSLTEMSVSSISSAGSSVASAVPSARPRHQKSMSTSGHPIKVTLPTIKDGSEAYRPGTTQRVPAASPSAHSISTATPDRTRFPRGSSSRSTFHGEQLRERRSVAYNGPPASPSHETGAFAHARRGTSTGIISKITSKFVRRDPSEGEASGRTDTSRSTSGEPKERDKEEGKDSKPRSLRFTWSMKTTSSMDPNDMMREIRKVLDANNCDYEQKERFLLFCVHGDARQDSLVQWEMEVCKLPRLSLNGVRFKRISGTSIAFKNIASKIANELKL

| SMILES | remaining activity at 1 µM (panel of 442 kinases [1]) | remaining activity at 1 µM (panel of 442 kinases [2]) | remaining activity at 1 µM (panel of 442 kinases [3]) | remaining activity at 1 µM (panel of 442 kinases [4]) | remaining activity at 1 µM (panel of 442 kinases [5]) | remaining activity at 10 µM (panel of 442 kinases [5]) | remaining activity at 1 µM (panel of 442 kinases [6]) | remaining activity at 1 µM (panel of 442 kinases [7]) | remaining activity at 1 µM (panel of 442 kinases [8]) | remaining activity at 1 µM (panel of 442 kinases [9]) | remaining activity at 1 µM (panel of 442 kinases [10]) | remaining activity at 1 µM (panel of 442 kinases [11]) | further results |
| --- | --- | --- | --- | --- | --- | --- | --- | --- | --- | --- | --- | --- | --- |
| Nc1cc(C(F)(F)F)c(-c2cc(N3CCOCC3)nc(N3CCOCC3)n2)cn1 [Buparlisib] | 100% | 93% | 100% | 83% | 100% | 73% | 84% | 89% | 100% | 100% | 100% | 98% | remaining activity at 10 µM (panel of 442 kinases [1]; [12]): 100%; remaining activity at 10 µM (panel of 442 kinases [2]; 10 µM, read-out: STK39 (% of control at 10 µM)): 100%; remaining activity at 10 µM (panel of 442 kinases [3]; [12]): 100%; remaining activity at 10 µM (panel of 442 kinases [4]; 10 µM, read-out: VRK2 (% of control at 10 µM)): 100%; remaining activity at 10 µM (panel of 442 kinases [6]; [12]): 100%; remaining activity at 10 µM (panel of 442 kinases [7]; 10 µM, read-out: PLK2 (% of control at 10 µM)): 100%; remaining activity at 10 µM (panel of 442 kinases [8]; [12]): 100%; remaining activity at 10 µM (panel of 442 kinases [9]; 10 µM, read-out: TTK (% of control at 10 µM)): 85%; remaining activity at 10 µM (panel of 442 kinases [10]; 10 µM, read-out: PRP4 (% of control at 10 µM)): 93%; remaining activity at 10 µM (panel of 442 kinases [11]; [12]): 100% |
| Cn1c(=O)n(-c2ccc(C(C)(C)C#N)cc2)c2c3cc(-c4cnc5ccccc5c4)ccc3ncc21 [Dactolisib, 2-methyl-2-[4-(3-methyl-2-oxo-8-quinolin-3-yl-2,3-dihydroimidazo[4,5-c]quinolin-1-yl)-phenyl] propionitrile] | 82% | 100% | 100% | 83% | 100% |  | 100% | 100% |  | 49% | 100% | 53% |  |
| COc1ncc(-c2ccc3nccc(-c4ccnnc4)c3c2)cc1NS(=O)(=O)c1ccc(F)cc1F [Omipalisib] | 100% | 76% | 100% | 100% | 67% |  | 100% | 100% | 100% | 76% | 95% | 82% |  |
| CS(=O)(=O)N1CCN(Cc2cc3nc(-c4cccc5[nH]ncc45)nc(N4CCOCC4)c3s2)CC1 [Pictilisib, 2-(1H-indazol-4-yl)-6-(4-methanesulfonyl-piperazin-1-ylmethyl)-4-morpholin-4-yl-t hieno[3,2-d]pyrimidine] |  |  |  |  | 85% | 55% |  |  |  |  |  |  |  |
| FC(F)c1nc2ccccc2n1-c1nc(N2CCOCC2)nc(N2CCOCC2)n1 [ZSTK474, 2-(difluoromethyl)-1-[4,6-di(4-morpholinyl)-1,3,5-triazin-2-yl]-1H-benzimidazole] | 98% | 95% | 100% | 100% | 86% |  | 100% | 100% | 100% | 100% | 100% | 53% |  |
